Compound in assay [1]: CC(C)(C)c1nc(-c2cccc(NS(=O)(=O)c3c(F)cccc3F)c2F)c(-c2ccnc(N)n2)s1 [Dabrafenib] + Cc1nc(Nc2ncc(C(=O)Nc3c(C)cccc3Cl)s2)cc(N2CCN(CCO)CC2)n1 [Dasatinib] (partner 0.075 µM)
The assay is described as follows: relative viability (nuclei count vs DMSO), 5 days (fraction); higher = more cells survive. A digest of the protocol: (§1)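 After 5 days of treatment, lung cancer cells in 1536-well plates were fixed and stained in a single step (final 0.05% Triton X-100, 1% formaldehyde, 1 ug/ml Hoechst) and their nuclei counted on 4× images. Treatment had been applied by pin tool the day after seeding as one drug alone or as a fixed anchor-drug dose with five library-drug doses (not always all listed) in √10 steps. Relative viability is the nuclei count of treated wells divided by that of vehicle wells, and values are medians of duplicate plates.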

Compound in assay [2]: CC(C)(C)c1nc(-c2cccc(NS(=O)(=O)c3c(F)cccc3F)c2F)c(-c2ccnc(N)n2)s1 [Dabrafenib] + CCNC(=O)c1noc(-c2cc(C(C)C)c(O)cc2O)c1-c1ccc(CN2CCOCC2)cc1 [Luminespib] (partner 0.01 µM)
Described as above. A digest of the protocol:
as §1

Turning to SW 900, the relative viability came to 0.581 in assay [1] (first compound 0.009487 µM); 0.371 in assay [1] (first compound 0.03 µM); 0.705 in assay [1] (first compound 0.3 µM); 0.186 in assay [2] (first compound 0.009487 µM); 0.166 in assay [2] (first compound 0.03 µM); 0.214 in assay [2] (first compound 0.3 µM).

Values taken from the supplement of paper PMC10307832.
